Measured values from patent US20160280651A1, “COMPOUNDS THAT INDUCE ABA RESPONSES” (THE REGENTS OF THE UNIVERSITY OF CALIFORNIA, priority 2013, published 2016).

Tests used:
Physcomitrella patens = assay: Protonema growth of moss; format: in vivo; settings: 200 μM for 10 days
Experimental: (§1) FIG. 17A-FIG. 17D. The effect of ABA and its agonists in Physcomitrella patens and Chlamydomonas. Protonemal growth images (A) and quantitative analysis (B) of the effects of ABA and agonists on Phsycomitrella patens. Protonema were grown on 200 μM of specific test chemical for 10 days. […] Pyrabactin bleached protonema. (C) The expression of ABA-responsive genes of Physcomitrella patens. Protonema were treated with 200 μM chemical solutions for 3 h. (D) Colony growth of Chlamydomonas on the chemical with salinity stress and osmotic stress. There was no effect of ABA and LC66C6 on the Chlamydomonas growth with and without stresses.

Chlamydomonas = assay: Colony growth of Chlamydomonas with and without salinity and osmotic stress; format: in vivo
Experimental: as §1

ABA-responsive genes [1] = assay: ATH1 microarray analysis; format: in vivo, Arabidopsis; settings: wild-type seedlings; 25 μM
Experimental: (§2) FIG. 9A-FIG. 9D. LC66C6 induces numerous ABA-responsive genes. […] Ten-day old seedlings were treated with carrier solvent (DMSO) or either 25 μM ABA, pyrabactin or LC66C6 for 8 hours. Total RNA was then prepared labeled and hybridized to ATH1 microarrays. Data plotted are log 2 transformed average expression values for ˜13K probes that were detectable across all experiments. Data shown are averages determined from triplicate biological replicates. (C) and (D) show the expression of a reporter gene in different plant tissues after treatment with vehicle (DMSO), pyrabactin, LC66C6, or (+)-ABA.
Total RNA was isolated using RNAeasy Plant Mini Kit (Qiagen, USA) according to the manufacturer's instructions. cDNA synthesis, labeling and hybridization to the Arabidopsis ATH1 chips (Affymetrix, USA) were performed by the IIGB Core Instrumentation Facility of University of California at Riverside using Affymetrix protocols. Biological triplicate samples were hybridized for DMSO controls, ABA, pyrabactin and quinabactin treatments; compound were applied at 25 μM final concentration and RNA prepared from frozen tissue after 6 hours exposure to compounds or controls. Expression signals for probe sets were calculated and normalized by MASS Statistical Algorithm (Affymetrix, USA). Experimental filtering of array data was performed for the presence of signal in all experiments. […]

ABA-responsive genes [2] = assay: Quantitative RT-PCR of ABA-responsive genes in Arabidopsis; format: in vivo; settings: for Induction of MAPKKK18, RD29A and RD29B mRNAs: Col and Ler ecotypes and pyr1, pyl1, pyl2, pyl3, pyl4 single mutants; for Expression of ABF3, GBF3, NCED3 and RD29A: Col wild-type plants; for Expression of RD29B and MAPKKK18 mRNA: wild-type plants
Experimental: as §2
FIG. 10. ABA-responsive gene expression in PYR/PYL single mutants. The response of the ABA-responsive MAPKKK18, RD29A, and RD29B mRNAs to LC66C6, ABA and pyrabactin were characterized in the Col and Ler ecotypes and the pyr1, pyl1, ply2, pyl3 and pyl4 single mutant genotypes.
FIG. 11. LC66C6 induces ABA-responsive gene expression in wild-type plants, abi1-1 and PYR/PYL quadruple mutants.
Total RNA was isolated using Plant RNA purification reagent (Invitrogen, USA) according to the manufacturer's instructions. cDNA was synthesized from 1 μg of total RNA using the QantiTec reverse transcription kit (Qiagen, USA). Real-time PCR using Maxima® SYBR Green/Fluorescein qPCR Master Mix (Fermentas) was performed with the iQ5 real-time PCR detection system (Bio-Rad, Hercules, Calif.). The relative amounts of target mRNAs were determined using the relative standard curve method and were normalized by relative amount of internal control mRNA. Biological triplicate experiments were performed.

CCCN1C(=O)CCc2cc(NS(=O)(=O)Cc3ccc(C)cc3)ccc21 [LC66C6]
Growth of protonema (Physcomitrella patens): weak but significant inhibition | Growth of Chlamydomonas (Chlamydomonas): no effect | Genome-wide expression pattern compared with ABA (ABA-responsive genes [1]): induces a similar set of genes to those induced by ABA | Induction of MAPKKK18, RD29A and RD29B mRNAs (ABA-responsive genes [2]): induced | Expression of ABF3, GBF3, NCED3 and RD29A (ABA-responsive genes [2]): induced expression of ABF3, GBF3, NCED3, and RD29A in a dose dependent manner | Expression of RD29B and MAPKKK18 mRNA (ABA-responsive genes [2]): induced the expression of RD29B and MAPKKK18 mRNA in a dose dependent manner in wild-type plants

O=S(=O)(NCc1ccccn1)c1ccc(Br)c2ccccc12 [pyrabactin, reference compound]
Growth of protonema (Physcomitrella patens): bleached the protonema | Growth of Chlamydomonas (Chlamydomonas): bleached the Chlamydomonas | Genome-wide expression pattern compared with ABA (ABA-responsive genes [1]): did not induce an expression pattern similar to that of ABA | Induction of MAPKKK18, RD29A and RD29B mRNAs (ABA-responsive genes [2]): did not significantly induce expression | Expression of ABF3, GBF3, NCED3 and RD29A (ABA-responsive genes [2]): did not induce significant expression | Expression of RD29B and MAPKKK18 mRNA (ABA-responsive genes [2]): did not induce gene expression in wild-type plants
